ChEMBL document CHEMBL5634112, “Synthesis and biological evaluation of fluoroquinolones containing a pyridoxine derivatives moiety” (Eur J Med Chem, 2023)
Values after ≈ are worked out from the molar mass of the structure shown.

Key:
[1] = test system: Salmonella typhimurium; assay: Antibacterial activity against Salmonella typhimurium TA100 assessed as reduction in microbial growth incubated for 24 hrs by broth microdilution method; format: functional, Salmonella enterica subsp. enterica serovar Typhimurium; details: Salmonella enterica
[2] = test system: Escherichia coli; assay: Antibacterial activity against Escherichia coli ATCC 25922 assessed as reduction in microbial growth incubated for 24 hrs by broth microdilution method; format: functional
[3] = test system: Klebsiella aerogenes; assay: Antibacterial activity against clinical isolate Enterobacter aerogenes NKC 8 assessed as reduction in microbial growth incubated for 24 hrs by broth microdilution method; format: functional
[4] = test system: Klebsiella pneumoniae; assay: Antibacterial activity against clinical isolate Klebsiella pneumoniae 1678 assessed as reduction in microbial growth incubated for 24 hrs by broth microdilution method; format: functional
[5] = test system: Staphylococcus haemolyticus; assay: Antibacterial activity against clinical isolate Staphylococcus haemolyticus NKC 31/2 assessed as reduction in microbial growth incubated for 24 hrs by broth microdilution method; format: functional
[6] = test system: Staphylococcus aureus; assay: Antibacterial activity against clinical isolate methicillin resistant Staphylococcus aureus 4771 assessed as reduction in microbial growth incubated for 24 hrs by broth microdilution method; format: functional
[7] = test system: Staphylococcus aureus; assay: Antibacterial activity against clinical isolate Staphylococcus aureus 4721 assessed as reduction in microbial growth incubated for 24 hrs by broth microdilution method; format: functional
[8] = Cytotoxicity against human MSC assessed as reduction in cell viability incubated for 72 hrs by MTT assay; format: toxicity, cell-based; details: MSC cells
[9] = test system: Staphylococcus haemolyticus; assay: Antibacterial activity against clinical isolate Staphylococcus haemolyticus 1464 assessed as reduction in microbial growth incubated for 24 hrs by broth microdilution method; format: functional
[10] = Cytotoxicity against human HSF assessed as reduction in cell viability incubated for 72 hrs by MTT assay; format: toxicity, cell-based; details: HSF cells
[11] = test system: Pseudomonas aeruginosa; assay: Antibacterial activity against Pseudomonas aeruginosa ATCC 27853 assessed as reduction in microbial growth incubated for 24 hrs by broth microdilution method; format: functional
[12] = test system: Cedecea davisae; assay: Antibacterial activity against clinical isolate Cedecea davisae 1813 assessed as reduction in microbial growth incubated for 24 hrs by broth microdilution method; format: functional
[13] = Cytotoxicity against human CHL assessed as reduction in cell viability incubated for 72 hrs by MTT assay; format: toxicity, cell-based; details: CHL cells
[14] = test system: Staphylococcus epidermidis; assay: Antibacterial activity against clinical isolate Staphylococcus epidermidis assessed as reduction in microbial growth incubated for 24 hrs by broth microdilution method; format: functional
[15] = test system: Staphylococcus epidermidis; assay: Antibacterial activity against clinical isolate Staphylococcus epidermidis NKC 37/1 assessed as reduction in microbial growth incubated for 24 hrs by broth microdilution method; format: functional
[16] = test system: Pseudomonas aeruginosa; assay: Antibacterial activity against clinical isolate Pseudomonas aeruginosa NKC 17 assessed as reduction in microbial growth incubated for 24 hrs by broth microdilution method; format: functional
[17] = test system: Bacillus subtilis; assay: Antibacterial activity against Bacillus subtilis 168 assessed as reduction in microbial growth incubated for 24 hrs by broth microdilution method; format: functional
[18] = test system: Staphylococcus aureus; assay: Antibacterial activity against methicillin sensitive Staphylococcus aureus ATCC 29213 assessed as reduction in microbial growth incubated for 24 hrs by broth microdilution method; format: functional
[19] = test system: Enterococcus faecalis; assay: Antibacterial activity against clinical isolate Enterococcus faecalis 1465 assessed as reduction in microbial growth incubated for 24 hrs by broth microdilution method; format: functional
[20] = test system: Micrococcus luteus; assay: Antibacterial activity against clinical isolate Micrococcus luteus assessed as reduction in microbial growth incubated for 24 hrs by broth microdilution method; format: functional
[21] = test system: Escherichia coli; assay: Antibacterial activity against clinical isolate Escherichia coli NKC 1 assessed as reduction in microbial growth incubated for 24 hrs by broth microdilution method; format: functional
[22] = test system: Staphylococcus aureus; assay: Antibacterial activity against clinical isolate Staphylococcus aureus 1812 assessed as reduction in microbial growth incubated for 24 hrs by broth microdilution method; format: functional
[23] = test system: Staphylococcus auricularis; assay: Antibacterial activity against clinical isolate Staphylococcus auricularis NKC 7 assessed as reduction in microbial growth incubated for 24 hrs by broth microdilution method; format: functional

Compound	MIC [1]	MIC [2]	MIC [3]	MIC [4]	MIC [5]	MIC [6]	MIC [7]	CC50 at 72 h [8]	MIC [9]	CC50 at 72 h [10]	MIC [11]	MIC [12]	CC50 at 72 h [13]	MIC [14]	MIC [15]	MIC [16]	MIC [17]	MIC [18]	MIC [19]	MIC [20]	also measured
COc1c(N2C[C@@H]3CCCN(Cc4c(CO)nc(C)c(O)c4CO)[C@@H]3C2)c(F)cc2c(=O)c(C(=O)O)cn(C3CC3)c12.Cl	2 µg/mL	2 µg/mL	8 µg/mL	64 µg/mL	8 µg/mL	8 µg/mL	0.25 µg/mL	20.6 µg/mL	0.25 µg/mL	35.2 µg/mL	> 64 µg/mL	0.5 µg/mL	17.6 µg/mL	2 µg/mL	0.25 µg/mL	32 µg/mL	2 µg/mL	2 µg/mL	4 µg/mL	2 µg/mL	MIC [21]: 4 µg/mL; MIC [22]: 0.5 µg/mL; MIC [23]: 0.06 µg/mL
CCCC1OCc2c(CN3CCC[C@H]4CN(c5c(F)cc6c(=O)c(C(=O)O)cn(C7CC7)c6c5OC)C[C@H]43)cnc(C)c2O1 (stereo partly specified)	4 µg/mL	> 64 µg/mL	64 µg/mL	> 64 µg/mL	64 µg/mL	4 µg/mL	2 µg/mL	2.91 µg/mL (≈ 4.8 µM)	2 µg/mL	2.34 µg/mL (≈ 3.86 µM)	> 64 µg/mL	2 µg/mL	2.46 µg/mL (≈ 4.05 µM)	2 µg/mL	4 µg/mL	> 64 µg/mL	2 µg/mL	2 µg/mL	64 µg/mL	2 µg/mL	MIC [21]: 4 µg/mL; MIC [22]: 4 µg/mL; MIC [23]: 0.13 µg/mL
CCn1cc(C(=O)O)c(=O)c2cc(F)c(N3CCNC(C)C3)c(F)c21 (stereo unspecified) [LOMEFLOXACIN]	1 µg/mL	1 µg/mL	1 µg/mL	1 µg/mL	8 µg/mL	1 µg/mL	1 µg/mL	35.7 µg/mL (≈ 102 µM)	0.5 µg/mL	46.2 µg/mL (≈ 131 µM)	4 µg/mL	0.25 µg/mL	31.3 µg/mL (≈ 89.1 µM)	2 µg/mL	2 µg/mL	1 µg/mL	0.5 µg/mL	0.5 µg/mL	> 64 µg/mL	1 µg/mL	MIC [21]: 0.06 µg/mL; MIC [22]: 2 µg/mL; MIC [23]: 0.06 µg/mL
CCn1cc(C(=O)O)c(=O)c2cc(F)c(N3CCN(Cc4cnc(C)c5c4COCO5)CC3)cc21.Cl	2 µg/mL	4 µg/mL	1 µg/mL	4 µg/mL	8 µg/mL	1 µg/mL	1 µg/mL	21.2 µg/mL	1 µg/mL	23.4 µg/mL	> 64 µg/mL	0.25 µg/mL	9.78 µg/mL	2 µg/mL	2 µg/mL	2 µg/mL	2 µg/mL	2 µg/mL	32 µg/mL	4 µg/mL	MIC [21]: 0.13 µg/mL; MIC [22]: 2 µg/mL; MIC [23]: 0.03 µg/mL
COc1c(N2C[C@@H]3CCCN(Cc4cnc(C)c(O)c4CO)[C@@H]3C2)c(F)cc2c(=O)c(C(=O)O)cn(C3CC3)c12.Cl	4 µg/mL	> 64 µg/mL	8 µg/mL	> 64 µg/mL	8 µg/mL	0.13 µg/mL	0.13 µg/mL	48.4 µg/mL	0.13 µg/mL	56.7 µg/mL	> 64 µg/mL	0.13 µg/mL	18.6 µg/mL	2 µg/mL	0.06 µg/mL	64 µg/mL	2 µg/mL	2 µg/mL	1 µg/mL	4 µg/mL	MIC [21]: 4 µg/mL; MIC [22]: 0.25 µg/mL; MIC [23]: 0.03 µg/mL
Cc1nc(CO)c(CN2CCN(c3cc4c(cc3F)c(=O)c(C(=O)O)cn4C3CC3)CC2)c(CO)c1O.Cl	4 µg/mL	64 µg/mL	2 µg/mL	8 µg/mL	16 µg/mL	2 µg/mL	2 µg/mL	52.6 µg/mL	4 µg/mL	38 µg/mL	> 64 µg/mL	1 µg/mL	31.8 µg/mL	8 µg/mL	1 µg/mL	16 µg/mL	4 µg/mL	0.5 µg/mL	32 µg/mL	2 µg/mL	MIC [21]: 0.5 µg/mL; MIC [22]: 4 µg/mL; MIC [23]: 0.25 µg/mL
COc1c(N2C[C@@H]3CCCN(Cc4nc(C)c5c(c4CO)COC(C)(C)O5)[C@@H]3C2)c(F)cc2c(=O)c(C(=O)O)cn(C3CC3)c12	2 µg/mL	> 64 µg/mL	16 µg/mL	64 µg/mL	32 µg/mL	1 µg/mL	1 µg/mL	7.26 µg/mL (≈ 11.7 µM)	1 µg/mL	11.3 µg/mL (≈ 18.1 µM)	> 64 µg/mL	0.5 µg/mL	6.41 µg/mL (≈ 10.3 µM)	4 µg/mL	2 µg/mL	> 64 µg/mL	2 µg/mL	2 µg/mL	16 µg/mL	2 µg/mL	MIC [21]: 8 µg/mL; MIC [22]: 2 µg/mL; MIC [23]: 0.03 µg/mL
